Measurements reported in patent publication US12637424B2, “Pharmaceutical salt of an arylpyrrole derivative” (SENTINEL ONCOLOGY LIMITED, priority 2020, dated 2026).
Values belong to the compound of their own block, whether it stands above or below them.

Legend:
[1] = system: HeLa cells stably expressing a Centrin1-GFP fusion protein; assay: Centriole number (Centrin1-GFP) assay; type: cell-based; details: 0.02 μM, 72 hours
Description: The effect of A-2 on centrosome function was therefore investigated further. HeLa cells stably expressing a Centrin1-GFP fusion protein were seeded into 96-well plates overnight. Cells were treated with atropisomer A-2 (at a concentration of 0.02 μM in DMSO) or DMSO control for 72 hours and then imaged using a fluorescence microscope. Multiple cell fields were captured for each treatment condition, and the images were subsequently analysed manually. Centrin1-GFP specifically marks centrioles as discrete foci, and therefore can be used to quantitate centriole number per cell. Thus, for each treatment condition, 100 cells were analysed and the number of centrioles present in each cell was recorded. The data were then separated into bins (no centrioles, 1 centriole, 2 centrioles, and greater than 2 centrioles) and are shown in FIG. 11.

NCI-H1299 = assay: Cancer cell line panel proliferation (CellTiter-Glo); type: cell-based; details: NCI-H1299, Lung, 72 hours
Description: (§1) Screening against diverse cancer cell lines was performed to identify tumour types displaying sensitivity to atropisomers A-1 and A-2. A panel of 48 cancer-derived cell lines was screened in a high-throughput proliferation assay using dilutions of atropisomers A-1/A-2. Cell lines that were screened included those representing cancer of the pancreas, large intestine/colorectum, lung, brain and nerves, and lymphoma and leukaemia cell lines. Cell lines were treated with serial half-log dilutions of compound and assayed 72 hours later for proliferation using CellTiter-Glo Assay (Promega). IC50 values were calculated by fitting the dose-response data using a nonlinear regression model.

PANC-1 = assay: as above; type: cell-based; details: PANC-1, Pancreas, 72 hours
Description: as §1

A-172 = assay: as above; type: cell-based; details: A-172, Brain&Nerves, 72 hours
Description: as §1

KG-1 = assay: as above; type: cell-based; details: KG-1, Blood/Leukaemia, 72 hours
Description: as §1

U-2932 = assay: as above; type: cell-based; details: U-2932, Blood/Lymphoma, 72 hours
Description: as §1

WSU-DLCL2 = assay: as above; type: cell-based; details: WSU-DLCL2, Blood/Lymphoma, 72 hours
Description: as §1

LN-229 = assay: as above; type: cell-based; details: LN-229, Brain&Nerves, 72 hours
Description: as §1

JeKo-1 = assay: as above; type: cell-based; details: JeKo-1, Blood/Lymphoma, 72 hours
Description: as §1

SW1088 = assay: as above; type: cell-based; details: SW1088, Brain&Nerves, 72 hours
Description: as §1

D283 Med = assay: as above; type: cell-based; details: Brain&Nerves, 72 hours
Description: as §1

GRANTA-519 = assay: as above; type: cell-based; details: GRANTA-519, Blood/Lymphoma, 72 hours
Description: as §1

SK-MES-1 = assay: as above; type: cell-based; details: SK-MES-1, Lung, 72 hours
Description: as §1

Kasumi-1 = assay: as above; type: cell-based; details: Kasumi-1, Blood/Leukaemia, 72 hours
Description: as §1

HCT 116 = assay: as above; type: cell-based; details: HCT 116, Large intestine/Colorectum, 72 hours
Description: as §1

LoVo = assay: as above; type: cell-based; details: Large intestine/Colorectum, 72 hours
Description: as §1

ML-2 = assay: as above; type: cell-based; details: ML-2, Blood/Leukaemia, 72 hours
Description: as §1

COLO 205 = assay: as above; type: cell-based; details: COLO 205, Large intestine/Colorectum, 72 hours
Description: as §1

U118 MG = assay: as above; type: cell-based; details: Brain&Nerves, 72 hours
Description: as §1

OCI-LY-19 = assay: as above; type: cell-based; details: OCI-LY-19, Blood/Lymphoma, 72 hours
Description: as §1

[2] = Oral bioavailability and brain exposure in mouse PK; type: in vivo, Male CD-1 mice; details: mice
Description: Atropisomer A-2 was evaluated in an in vivo mouse model to determine brain and plasma concentrations following p.o. and i.v. dosing. Male CD-1 mice were dosed with atropisomer A-2, either by i.v. administration (2 mg/kg) or by p.o. administration (10 mg/kg). Eight samples were taken for analysis in the i.v. leg at 2, 10, 30 min, 1, 2, 4, 8, and 24 (for i.v) and 9 samples in the p.o. leg at 15, 30 min, 1, 2, 4, 8, 24, 48 and 72 hrs. Atropisomer A-2 was formulated in 10% DMSO/[…] hydroxypropyl-beta-cyclodextrin (20% w/v in water) for i.v. and p.o. dosing. N=3 mice per time point. Post dosing, terminal blood samples were taken from individual animals and delivered into labelled polypropylene tubes containing anticoagulant (EDTA). The samples were held on wet ice for a maximum of 30 min while sampling of all the animals in the cohort was completed. The blood samples were centrifuged for plasma (4° C., 21100 g for 5 min) and the resulting plasma transferred into corresponding labelled tubes. Terminal brains from each PO dosed animal were excised, rinsed with saline and placed into pre-weighed labelled polypropylene tubes and the samples re-weighed prior to storage. Quantitative bioanalysis was carried out using liquid chromatography—mass spectroscopy was performed. The results are shown in Tables 14 and 15 below and in FIGS. 12 and 13.

IC50 (NCI-H1299; Homo sapiens): 370 nM | IC50 (PANC-1; Homo sapiens): 830 nM | IC50 (A-172; Homo sapiens): 340 nM | IC50 (KG-1; Homo sapiens): 460 nM | IC50 (WSU-DLCL2; Homo sapiens, WSUDLCL2): 360 nM | IC50 (LN-229; Homo sapiens): 310 nM | IC50 (JeKo-1; Homo sapiens): 190 nM | IC50 (SW1088; Homo sapiens): 770 nM | IC50 (D283 Med; Homo sapiens): 310 nM | IC50 (GRANTA-519; Homo sapiens): 220 nM | IC50 (SK-MES-1; Homo sapiens): 360 nM | IC50 (Kasumi-1; Homo sapiens): 330 nM | IC50 (HCT 116; Homo sapiens): 230 nM | IC50 (LoVo; Homo sapiens): 540 nM | IC50 (ML-2; Homo sapiens): 180 nM | IC50 (COLO 205; Homo sapiens): 380 nM | IC50 (U118 MG; Homo sapiens, U-118-MG): 470 nM | IC50 (OCI-LY-19; Homo sapiens, OCI-LY19): 220 nM | CI ([2]; 2 mg/Kg IV, plasma): 20.5 mL/min/kg | F ([2]; 10 mg/Kg PO vs 2 mg/Kg IV): 76%
SMILES: CN(C)CCNC(=O)c1ccc(-c2ccc(-c3ccc(Cl)cc3)n2-c2ccccc2C(F)(F)F)cc1 (single isomer, unassigned) [Atropisomer A-2]
effect on centriole number per cell [1]: evidence of PLK4 inhibition phenotypes | IC50 (U-2932; Homo sapiens, U2932): 280 nM

IC50 (NCI-H1299): 8250 nM | IC50 (PANC-1): > 10000 nM | IC50 (A-172): 7070 nM | IC50 (KG-1): > 10000 nM | IC50 (WSU-DLCL2): 6740 nM | IC50 (LN-229): 7370 nM | IC50 (JeKo-1): 7940 nM | IC50 (SW1088): 8490 nM | IC50 (D283 Med): 9260 nM | IC50 (GRANTA-519): 7420 nM | IC50 (SK-MES-1): 7780 nM | IC50 (Kasumi-1): 5130 nM | IC50 (HCT 116): 7360 nM | IC50 (LoVo): 8360 nM | IC50 (ML-2): 4010 nM | IC50 (COLO 205): 6750 nM | IC50 (U118 MG): 7600 nM | IC50 (OCI-LY-19): 6670 nM
SMILES: CN(C)CCNC(=O)c1ccc(-c2ccc(-c3ccc(Cl)cc3)n2-c2ccccc2C(F)(F)F)cc1 (single isomer, unassigned; atropisomer a) [Atropisomer A-1]
IC50 (U-2932): 4470 nM
